From Sander's compilation of Henry's law constants (doi:10.1021/es020599y)

assay: Henry solubility constant Hcp at 298.15 K (mol/(m3 Pa)); conditions: reference: Bamford et al. (2002)

SMILES | Henry solubility constant Hcp
Clc1cc(-c2cc(Cl)c(Cl)c(Cl)c2Cl)c(Cl)c(Cl)c1Cl [2,2',3,3',4,4',5,5'-octachlorobiphenyl] | 0.1
Clc1ccc(-c2c(Cl)c(Cl)cc(Cl)c2Cl)c(Cl)c1Cl [2,2',3,3',4,5',6'-heptachlorobiphenyl] | 0.021
Clc1cc(-c2c(Cl)ccc(Cl)c2Cl)c(Cl)c(Cl)c1Cl [2,2',3,3',4,5,6'-heptachlorobiphenyl] | 0.022
Clc1cccc(-c2ccc(Cl)c(Cl)c2Cl)c1Cl [2,2',3,3',4-pentachlorobiphenyl] | 0.027
Clc1cc(Cl)c(Cl)c(-c2c(Cl)ccc(Cl)c2Cl)c1 [2,2',3,3',5,6'-hexachlorobiphenyl] | 0.015
Clc1cc(Cl)c(Cl)c(-c2cccc(Cl)c2Cl)c1 [2,2',3,3',5-pentachlorobiphenyl] | 0.023
Clc1ccc(Cl)c(-c2c(Cl)ccc(Cl)c2Cl)c1Cl [2,2',3,3',6,6'-hexachlorobiphenyl] | 0.009
Clc1cccc(-c2cccc(Cl)c2Cl)c1Cl [2,2',3,3'-tetrachlorobiphenyl] | 0.036
Clc1cc(Cl)c(-c2c(Cl)ccc(Cl)c2Cl)cc1Cl [2,2',3,4',5',6-hexachlorobiphenyl] | 0.015
Clc1cc(Cl)c(-c2cccc(Cl)c2Cl)cc1Cl [2,2',3,4',5'-pentachlorobiphenyl] | 0.023
Clc1cc(Cl)c(Cl)c(-c2cc(Cl)c(Cl)cc2Cl)c1 [2,2',3,4',5,5'-hexachlorobiphenyl] | 0.017
Clc1ccc(-c2c(Cl)ccc(Cl)c2Cl)c(Cl)c1 [2,2',3,4',6-pentachlorobiphenyl] | 0.019
Clc1ccc(-c2cccc(Cl)c2Cl)c(Cl)c1 [2,2',3,4'-tetrachlorobiphenyl] | 0.028
Clc1cc(Cl)c(-c2c(Cl)cc(Cl)c(Cl)c2Cl)cc1Cl [2,2',3,4,4',5',6-heptachlorobiphenyl] | 0.017
Clc1cc(Cl)c(-c2cc(Cl)c(Cl)c(Cl)c2Cl)c(Cl)c1 [2,2',3,4,4',5,6'-heptachlorobiphenyl] | 0.017
Clc1ccc(-c2cc(Cl)c(Cl)c(Cl)c2Cl)c(Cl)c1 [2,2',3,4,4',5-hexachlorobiphenyl] | 0.045
Clc1ccc(-c2ccc(Cl)c(Cl)c2Cl)c(Cl)c1 [2,2',3,4,4'-pentachlorobiphenyl] | 0.023
Clc1ccc(Cl)c(-c2cc(Cl)c(Cl)c(Cl)c2Cl)c1 [2,2',3,4,5,5'-hexachlorobiphenyl] | 0.02
Clc1ccc(-c2c(Cl)cccc2Cl)c(Cl)c1Cl [2,2',3,4,6'-pentachlorobiphenyl] | 0.022
Clc1ccc(Cl)c(-c2c(Cl)ccc(Cl)c2Cl)c1 [2,2',3,5',6-pentachlorobiphenyl] | 0.021
Clc1cccc(-c2c(Cl)cccc2Cl)c1Cl [2,2',3,6'-tetrachlorobiphenyl] | 0.03
Clc1ccccc1-c1cccc(Cl)c1Cl [2,2',3-trichlorobiphenyl] | 0.042
Clc1ccc(-c2cc(Cl)c(Cl)cc2Cl)c(Cl)c1 [2,2',4,4',5-pentachlorobiphenyl] | 0.021
Clc1ccc(-c2cc(Cl)ccc2Cl)c(Cl)c1 [2,2',4,5'-tetrachlorobiphenyl] | 0.027
Clc1cc(Cl)c(-c2ccccc2Cl)cc1Cl [2,2',4,5-tetrachlorobiphenyl] | 0.027
Clc1ccc(-c2ccccc2Cl)c(Cl)c1 [2,2',4-trichlorobiphenyl] | 0.033

SMILES | Henry solubility constant Hcp
Clc1ccccc1-c1c(Cl)cccc1Cl [2,2',6-trichlorobiphenyl] | 0.033
Clc1ccccc1-c1ccccc1Cl [2,2'-dichlorobiphenyl] | 0.046
Clc1ccc(Cl)c(-c2ccc(Cl)c(Cl)c2)c1 [2,3',4',5-tetrachlorobiphenyl] | 0.033
Clc1ccc(-c2ccccc2Cl)cc1Cl [2,3',4'-trichlorobiphenyl] | 0.036
Clc1cc(Cl)c(-c2cc(Cl)c(Cl)c(Cl)c2)cc1Cl [2,3',4,4',5,5'-hexachlorobiphenyl] | 0.027
Clc1cc(Cl)c(-c2ccc(Cl)c(Cl)c2)c(Cl)c1 [2,3',4,4',6-pentachlorobiphenyl] | 0.015
Clc1cccc(-c2ccc(Cl)cc2Cl)c1 [2,3',4-trichlorobiphenyl] | 0.033
Clc1cccc(-c2cc(Cl)ccc2Cl)c1 [2,3',5-trichlorobiphenyl] | 0.035
Clc1cccc(-c2ccccc2Cl)c1 [2,3'-dichlorobiphenyl] | 0.043
Clc1cc(-c2c(Cl)c(Cl)cc(Cl)c2Cl)cc(Cl)c1Cl [2,3,3',4',5,5',6-heptachlorobiphenyl] | 0.032
Clc1cc(Cl)c(Cl)c(-c2ccc(Cl)c(Cl)c2)c1 [2,3,3',4',5-pentachlorobiphenyl] | 0.043
Clc1ccc(-c2c(Cl)ccc(Cl)c2Cl)cc1Cl [2,3,3',4',6-pentachlorobiphenyl] | 0.023
Clc1ccc(-c2cccc(Cl)c2Cl)cc1Cl [2,3,3',4'-tetrachlorobiphenyl] | 0.038
Clc1cc(-c2ccc(Cl)c(Cl)c2Cl)cc(Cl)c1Cl [2,3,3',4,4',5'-hexachlorobiphenyl] | 0.034
Clc1ccc(-c2cc(Cl)c(Cl)c(Cl)c2Cl)cc1Cl [2,3,3',4,4',5-hexachlorobiphenyl] | 0.029
Clc1ccc(-c2c(Cl)cc(Cl)c(Cl)c2Cl)cc1Cl [2,3,3',4,4',6-hexachlorobiphenyl] | 0.021
Clc1ccc(-c2cc(Cl)cc(Cl)c2Cl)cc1 [2,3,4',5-tetrachlorobiphenyl] | 0.025
Clc1ccc(-c2c(Cl)ccc(Cl)c2Cl)cc1 [2,3,4',6-tetrachlorobiphenyl] | 0.025
Clc1ccc(Cl)c(-c2ccccc2)c1Cl [2,3,6-trichlorobiphenyl] | 0.033
Clc1cccc(-c2ccccc2)c1Cl [2,3-dichlorobiphenyl] | 0.043
Clc1ccc(-c2cc(Cl)ccc2Cl)cc1 [2,4',5-trichlorobiphenyl] | 0.034
Clc1ccc(-c2ccccc2)c(Cl)c1 [2,4-dichlorobiphenyl] | 0.037
Clc1cc(-c2cc(Cl)c(Cl)c(Cl)c2)cc(Cl)c1Cl [3,3',4,4',5,5'-hexachlorobiphenyl] | 0.047
Clc1ccc(-c2cccc(Cl)c2)cc1 [3,4'-dichlorobiphenyl] | 0.049
Clc1ccc(-c2cc(Cl)c(Cl)c(Cl)c2)cc1 [3,4,4',5-tetrachlorobiphenyl] | 0.041
